Data as given in PubChem BioAssay (NCI).
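Each compound was tested at five concentrations against cells in 96-well plates for 48 hours. The concentration for 50% growth inhibition is given as GI50. TGI: total growth inhibition.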

Key:
Experiment in all cases: NCI tumour cell line growth inhibition, 48 h
[1] = tested on: XF 498 CNS
[2] = tested on: DLD-1 colon
[3] = tested on: DMS 273 small cell lung
[4] = tested on: SNB-78 CNS
[5] = tested on: HOP-18 NSCLC
[6] = tested on: KM20L2 colon
[7] = tested on: SR leukemia
[8] = tested on: MOLT-4 leukemia
[9] = tested on: LXFL 529 NSCLC
[10] = tested on: M19-MEL melanoma
[11] = tested on: DMS 114 small cell lung
[12] = tested on: RXF-631 renal
[13] = tested on: T-47D breast
[14] = tested on: PC-3 prostate
[15] = tested on: P388 leukemia
[16] = tested on: SN12K1 renal
[17] = tested on: P388/ADR leukemia

O=C1/C(=C/c2ccccc2)CCCC/C1=C\c1ccccc1
TGI [1]: > 100 µM | TGI [2]: > 100 µM | TGI [3]: > 100 µM | TGI [4]: > 100 µM | TGI [5]: > 100 µM | TGI [6]: > 100 µM | TGI [7]: > 100 µM | TGI [8]: > 100 µM | TGI [9]: > 100 µM | TGI [10]: > 100 µM | TGI [11]: > 100 µM | TGI [12]: > 100 µM

CCOC(=O)c1c(NC(=O)c2ccc(OC)cc2)sc2c1CCCC2
TGI [7]: > 100 µM | TGI [13]: > 100 µM | TGI [8]: > 100 µM | TGI [14]: > 100 µM

COc1c(O)cc2c(c1O)C1O[C@H](CO)C(O)[C@H](O)[C@H]1OC2=O (stereo not given in full)
TGI [7]: > 100 µM | TGI [13]: > 100 µM | TGI [8]: > 100 µM | TGI [14]: > 100 µM

C/C(=C/CNc1ncnc2c1ncn2CCC#N)CO
TGI [7]: > 100 µM | TGI [13]: > 100 µM | TGI [8]: > 100 µM | TGI [14]: > 100 µM

CCOC(=O)Oc1cc2c(ccn2C)c2c1c1ccccc1n2C(=O)OCC
TGI [7]: > 100 µM | TGI [13]: > 100 µM | TGI [8]: > 100 µM | TGI [14]: > 100 µM

COC(=O)/C(=C/CC(N=C(c1ccccc1)c1ccccc1)C(=O)OC)N=C(c1ccccc1)c1ccccc1 (stereo not given)
TGI [1]: > 100 µM | TGI [2]: > 100 µM | TGI [3]: > 100 µM | TGI [7]: > 100 µM | TGI [8]: > 100 µM | TGI [9]: > 100 µM | TGI [10]: > 100 µM | TGI [11]: 82.1 µM

C[C@@H]1OC2(O)[C@@H]3CCCN3C(=O)N(Cc3ccccc3)N2C1=O (stereo not given in full)
TGI [7]: > 100 µM | TGI [13]: > 100 µM | TGI [8]: > 100 µM | TGI [14]: > 100 µM

CCCCCNC1=CC(=O)c2ccccc2C1=O
TGI [7]: > 100 µM | TGI [13]: > 82.6 µM | TGI [8]: > 100 µM | TGI [14]: > 100 µM

COC(=O)[C@]12CSC[C@H]1C[C@H](c1ccc(N(C)C)cc1)N2
TGI [7]: > 100 µM | TGI [13]: > 100 µM | TGI [8]: > 100 µM | TGI [14]: > 100 µM

CC(C)N(c1cc2c(cc1F)c(=O)c(C(=O)O)cn2-c1ccc(N2CCN(C)CC2)cn1)C(C)C
TGI [7]: > 100 µM | TGI [13]: > 100 µM | TGI [8]: > 100 µM | TGI [14]: > 100 µM

CC(CCC(=O)O)[C@H]1CCC2[C@H]3C(CC(=O)[C@@]21C)[C@@]1(C)CCC(O)C[C@H]1C[C@@H]3O (stereo not given in full)
TGI [7]: > 100 µM | TGI [13]: > 100 µM | TGI [8]: > 100 µM | TGI [14]: > 100 µM

C=CC1(c2ccc(Br)cc2)OCCCO1
TGI [7]: > 100 µM | TGI [13]: > 100 µM | TGI [8]: > 100 µM | TGI [14]: > 100 µM

Nc1ccc(C(=O)NN2C(=O)C(Cl)C2c2ccccc2O)cc1 (stereo not given)
TGI [1]: > 100 µM | TGI [2]: > 100 µM | TGI [3]: > 100 µM | TGI [4]: > 100 µM | TGI [6]: > 100 µM | TGI [8]: > 100 µM | TGI [9]: > 100 µM | TGI [10]: > 100 µM | TGI [11]: 79.6 µM

COc1ccccc1CNCc1nc2ccccc2[nH]1
TGI [7]: > 100 µM | TGI [13]: > 100 µM | TGI [8]: > 100 µM | TGI [14]: > 100 µM

COc1ccc2c(c1)/C(=C\c1cccc(/C=C3/C(=O)Nc4ccc(OC)cc43)n1)C(=O)N2
GI50 [7]: 0.209 µM | TGI [7]: 0.452 µM | TGI [13]: 2.53 µM | TGI [8]: 0.802 µM | TGI [14]: 8.91 µM

Nc1nncs1
TGI [1]: 3890 µM | TGI [15]: 2670 µM | TGI [2]: > 5000 µM | TGI [3]: > 5000 µM | TGI [4]: > 4420 µM | TGI [5]: > 5000 µM | TGI [6]: > 4800 µM | TGI [16]: > 5000 µM | TGI [17]: 2820 µM | TGI [7]: > 5000 µM | TGI [13]: > 4800 µM | TGI [8]: > 4900 µM | TGI [10]: > 4550 µM | TGI [14]: > 5000 µM | TGI [11]: > 5000 µM

CC(=C(C(=O)O)C(=O)O)c1cc(-c2cccs2)cc(-c2ccc(Cl)cc2)c1O
TGI [7]: 37.1 µM | TGI [13]: 21.3 µM | TGI [8]: 69.7 µM | TGI [14]: 28.3 µM

COC(=O)c1c(C(=O)OC)c(C(c2ccccc2)c2ccccc2)n(-c2ccccc2)c1Cl
TGI [7]: > 10 µM | TGI [13]: > 10 µM | TGI [8]: 8.1 µM | TGI [14]: > 10 µM

O=C1c2ccccc2C(=O)c2c(O)c(O)cc(O)c21
TGI [1]: 86.3 µM | TGI [2]: > 100 µM | TGI [3]: > 100 µM | TGI [4]: > 100 µM | TGI [8]: 97.9 µM | TGI [9]: > 100 µM | TGI [10]: > 100 µM | TGI [12]: > 100 µM

CO[C@H](c1ccccc1)[C@H](O)[C@](O)(c1ccccc1)P(=O)(OC)OC
TGI [7]: > 100 µM | TGI [13]: > 100 µM | TGI [8]: > 100 µM | TGI [14]: > 100 µM

COc1ccc(C(=O)N2CCN(c3ccc4[nH]c(=O)oc4c3)CC2)cc1
TGI [7]: > 100 µM | TGI [13]: > 100 µM | TGI [8]: > 100 µM | TGI [14]: > 100 µM

N#CC1=C(N2CCOCC2)CCC1
TGI [7]: > 100 µM | TGI [13]: > 100 µM | TGI [8]: > 100 µM | TGI [14]: > 100 µM

NC(=O)NC(=O)c1ccc(NC(=O)CBr)cc1
TGI [7]: 1.01 µM | TGI [13]: 4.01 µM | TGI [8]: 2.61 µM | TGI [14]: 4.39 µM
